{
  "source": "patent US20110245311A1",
  "about": "“Histidine Derivatives” (priority 2010, published 2011)",
  "key": {"Gram negative strains": {"tested_on": "Gram negative strains", "assay": "Antibiotic activity, plate counts on Mueller-Hinton agar, Gram negative ATCC strains", "assay_type": "cell-based", "details": "2 mg/ml, 1 mg/ml; plate counts after overnight incubation at 37° C.", "description": "The antibiotic activity of S-2-amino-3(3-phenylacetylimidazol-4-yl)propanoic acid (Compound A) was tested with a panel of standard ATCC bacteria, including 13315 Proteus vulgaris, 13883 Klebsiella pneumoniae, 25922 Escherichia coli, 27853 and Pseudomomas aeruginosa.\nDoubling dilutions of Compound A were tested on its antibiotic potentials. […] Plate counts were performed. All petri plates inoculated with 1 ml 0.5McFarland turbidity of corresponding ATCC strain."}, "Gram positives": {"tested_on": "Gram positives", "assay": "Antibiotic activity, plate counts on Mueller-Hinton agar, Gram positives", "assay_type": "cell-based", "details": "plate counts after overnight incubation at 37° C."}, "U-87 cells": {"tested_on": "U-87 cells", "assay": "Cell viability (cell count) with U-87 cells", "assay_type": "cell-based", "details": "Homo sapiens, U-87 MG, 72 hours, 37° C., MEM pH 7.0, read-out: EC90 (concentration resulting in greater than 90% decrease of cell numbers)"}, "HepG2 cells": {"tested_on": "HepG2 cells", "assay": "Cell viability of HepG2 cell line", "assay_type": "cell-based", "details": "Homo sapiens", "description": "The antineoplastic activities of Compound A were tested with U-87, a human glioblastoma/astrocytoma cell line and HepG2, a human liver carcinoma cell line.\nThe antineoplastic activity of Compound A was also measured with HepG2 cells."}, "mice": {"tested_on": "mice", "assay": "Preclinical safety study in mice", "assay_type": "in vivo", "details": "300 mg/kg or 500 mg/kg orally (PO), up to 72 hours", "description": "Preclinical safety studies were performed with administration of different levels of doses of Compound A to mice. Toxicity was analyzed with standard clinical chemical and histopathological examination. Five mice (n=5) were treated with 300 mg/kg or 500 mg/kg orally (PO) with one hour pretreatment for PO. Autonomic signs/mortality was measured during the first hour and mortality was measured again at 3, 24, 48 and 72 hours after administration."}, "caspase 3": {"tested_on": "caspase 3", "assay": "In vitro caspase assay (ELISA) in U-87 cells", "assay_type": "cell-based, human", "details": "5 mM, 18 hours after the addition", "description": "U-87 cells were used to test the effect of Compound A on the apoptotic pathway.\nU-87 cells were seeded in MEM alone or in MEM supplemented with 5 mM of Compound A, in MTP. For in vitro caspase assay, the cell culture plates were removed from incubator, cells were lysed and centrifuged and the supernatant was tested for caspase levels (C3). Supernatants from each sample were tested side by side on a new microtitre plate by ELISA with AP labelled IgG C3 antibody, pNPP chromogen (Enzo Diagnostics, Farmingdale, N.Y.). Caspase assays were performed immediately after the addition of the MEM medium, with or without Compound A, and 18 hours after the addition."}},
  "data": [
    {"compound": "N[C@@H](Cc1cncn1C(=O)Cc1ccccc1)C(=O)O", "note": "[Compound A, (S)-2-amino-3-(3-phenylacetylimidazol-4-yl) propanoic acid]", "values": [
      {"measurement": "inhibition of Gram negative strains", "setting": "Gram negative strains", "result": "did show inhibition"},
      {"measurement": "inhibition of Gram positives", "setting": "Gram positives", "result": "No inhibition"},
      {"measurement": "EC90", "setting": "U-87 cells", "result": 5, "unit": "mM"},
      {"measurement": "EC90", "setting": "HepG2 cells", "result": 5, "unit": "mM"},
      {"measurement": "cytotoxicity at 5000 µM", "setting": "HepG2 cells; 5 mM, read-out: decrease in cell viability", "result": "> 90", "unit": "%"},
      {"measurement": "toxicity (autonomic signs/mortality, clinical chemical and histopathological examination)", "setting": "mice", "result": "No toxicity was observed"},
      {"measurement": "increase of caspase 3", "setting": "caspase 3", "result": "Exponential increase, in the scale of several orders of magnitude"}
    ]}
  ]
}
